In brackets after ≈: the same amount, converted by molar mass.
Experiments:
Assay in all cases: In vitro antifungal activity, microbroth dilution MIC
Type in all cases: cell-based
Candida krusei K. 11655 = conditions: 4 to 48 hours; for Minimal inhibitory concentration(MIC), C. krusei K. 11655: RPMI-1640, 35° C., no growth observed; for Minimal inhibitory concentration (MIC): C. krusei K. 11655, RPMI-1640, 35° C.
Procedure, shortened: (§1)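 Broth microdilution adapted from NCCLS M27, in RPMI-1640 with 0.165 M MOPS, pH 7.0. Yeast or mould inoculum at 2×10^3 CFU/ml was mixed 1:1 with DMSO-derived compound solutions (200 to 0.10 μg/ml before mixing) and incubated at 35 °C for 4 to 48 h. MIC was the concentration showing no growth.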

[1] = tested on: Candida pseudotropicalis K. 11658; conditions: 4 to 48 hours; for Minimal inhibitory concentration(MIC), C. pseudotropicalis K. 11658: RPMI-1640, 35° C., no growth observed; for Minimal inhibitory concentration (MIC): C. pseudotropicalis K. 11658, RPMI-1640, 35° C.
Procedure, shortened: as §1

[2] = tested on: Cryptococcus neoformans A. 34144; conditions: 4 to 48 hours; for Minimal inhibitory concentration(MIC), Cry. neoformans A. 34144: RPMI-1640, 35° C., no growth observed; for Minimal inhibitory concentration (MIC): Cry. neoformans A. 34144, RPMI-1640, 35° C.
Procedure, shortened: as §1

[3] = tested on: Candida tropicalis A. 13803; conditions: 4 to 48 hours; for Minimal inhibitory concentration(MIC), C. tropicalis A. 13803: RPMI-1640, 35° C., no growth observed; for Minimal inhibitory concentration (MIC): C. tropicalis A. 13803, RPMI-1640, 35° C.
Procedure, shortened: as §1

[4] = tested on: Aspergillus furnigatus B. 19119; conditions: 4 to 48 hours; for Minimal inhibitory concentration(MIC), A furnigatus B. 19119: RPMI-1640, 35° C., no growth observed; for Minimal inhibitory concentration (MIC): A furnigatus B. 19119, RPMI-1640, 35° C.
Procedure, shortened: as §1

[5] = tested on: Aspergillus niger A. 16404; conditions: 4 to 48 hours; for Minimal inhibitory concentration(MIC), A. niger A. 16404: RPMI-1640, 35° C., no growth observed; for Minimal inhibitory concentration (MIC): A. niger A. 16404, RPMI-1640, 35° C.
Procedure, shortened: as §1

[6] = tested on: Trichophyton mentagrophytes A. 9129; conditions: 4 to 48 hours; for Minimal inhibitory concentration(MIC), T. mentagrophytes A. 9129: RPMI-1640, 35° C., no growth observed; for Minimal inhibitory concentration (MIC): T. mentagrophytes A. 9129, RPMI-1640, 35° C.
Procedure, shortened: as §1

[7] = tested on: Cryptococcus neoformans IFM. 40092; conditions: 4 to 48 hours; for Minimal inhibitory concentration(MIC), Cry. neoformans IFM. 40092: RPMI-1640, 35° C., no growth observed; for Minimal inhibitory concentration (MIC): Cry. neoformans IFM. 40092, RPMI-1640, 35° C.
Procedure, shortened: as §1

Candida albicans C1-2 = conditions: 4 to 48 hours; for Minimal inhibitory concentration(MIC), C. albicans C1-2: RPMI-1640, 35° C., no growth observed; for Minimal inhibitory concentration (MIC): C. albicans C1-2, RPMI-1640, 35° C.
Procedure, shortened: as §1

[8] = tested on: Candida parapsitosis A. 7330; conditions: 4 to 48 hours; for Minimal inhibitory concentration(MIC), C. parapsitosis A. 7330: RPMI-1640, 35° C., no growth observed; for Minimal inhibitory concentration (MIC): C. parapsitosis A. 7330, RPMI-1640, 35° C.
Procedure, shortened: as §1

[9] = tested on: Torulopsis glabrata B. 16205; conditions: 4 to 48 hours; for Minimal inhibitory concentration(MIC), T. glabrata B. 16205: RPMI-1640, 35° C., no growth observed; for Minimal inhibitory concentration (MIC): T. glabrata B. 16205, RPMI-1640, 35° C.
Procedure, shortened: as §1

[10] = tested on: Cryptococcus neoformans B. 42419; conditions: 4 to 48 hours; for Minimal inhibitory concentration(MIC), Cry. neoformans B. 42419: RPMI-1640, 35° C., no growth observed; for Minimal inhibitory concentration (MIC): Cry. neoformans B. 42419, RPMI-1640, 35° C.
Procedure, shortened: as §1

[11] = tested on: Trichophyton mentagrophytes B. 32663; conditions: 4 to 48 hours; for Minimal inhibitory concentration(MIC), T. mentagrophytes B. 32663: RPMI-1640, 35° C., no growth observed; for Minimal inhibitory concentration (MIC): T. mentagrophytes B. 32663, RPMI-1640, 35° C.
Procedure, shortened: as §1

[12] = tested on: Candida albicans IFO. 1385; conditions: 4 to 48 hours; for Minimal inhibitory concentration(MIC), C. albicans IFO. 1385: RPMI-1640, 35° C., no growth observed; for Minimal inhibitory concentration (MIC): C. albicans IFO. 1385, RPMI-1640, 35° C.
Procedure, shortened: as §1

[13] = tested on: Candida albicans A. 10231; conditions: 4 to 48 hours; for Minimal inhibitory concentration(MIC), C. albicans A. 10231: RPMI-1640, 35° C., no growth observed; for Minimal inhibitory concentration (MIC): C. albicans A. 10231, RPMI-1640, 35° C.
Procedure, shortened: as §1

Row | Minimal inhibitory concentration(MIC), C. krusei K. 11655 (Candida krusei K. 11655) [µg/mL] | Minimal inhibitory concentration(MIC), C. pseudotropicalis K. 11658 [1] [µg/mL] | Minimal inhibitory concentration(MIC), Cry. neoformans A. 34144 [2] [µg/mL] | Minimal inhibitory concentration(MIC), C. tropicalis A. 13803 [3] [µg/mL] | Minimal inhibitory concentration(MIC), A furnigatus B. 19119 [4] [µg/mL] | Minimal inhibitory concentration(MIC), A. niger A. 16404 [5] [µg/mL] | Minimal inhibitory concentration(MIC), T. mentagrophytes A. 9129 [6] [µg/mL] | Minimal inhibitory concentration(MIC), Cry. neoformans IFM. 40092 [7] [µg/mL] | Minimal inhibitory concentration(MIC), C. albicans C1-2 (Candida albicans C1-2) [µg/mL] | Minimal inhibitory concentration(MIC), C. parapsitosis A. 7330 [8] [µg/mL] | Minimal inhibitory concentration(MIC), T. glabrata B. 16205 [9] [µg/mL] | Minimal inhibitory concentration(MIC), Cry. neoformans B. 42419 [10] [µg/mL] | Minimal inhibitory concentration(MIC), T. mentagrophytes B. 32663 [11] [µg/mL] | Minimal inhibitory concentration(MIC), C. albicans IFO. 1385 [12] [µg/mL] | Minimal inhibitory concentration(MIC), C. albicans A. 10231 [13] [µg/mL] | Minimal inhibitory concentration (MIC) (Candida krusei K. 11655) [µg/mL] | Minimal inhibitory concentration (MIC) [1] [µg/mL] | Minimal inhibitory concentration (MIC) [2] [µg/mL] | Minimal inhibitory concentration (MIC) [3] [µg/mL] | Minimal inhibitory concentration (MIC) [4] [µg/mL] | SMILES | also measured
1 | >100 | >100 | 1.56 | >100 | >100 | >100 | >100 | 0.78 | 100 | >100 | >100 | 1.56 | >100 | 6.25 | >100 |  |  |  |  |  | COc1ccc(C(=C(F)OCC2COC(Cn3cncn3)(c3ccc(Cl)cc3Cl)O2)C(F)(F)F)cc1 (mixture of isomers) [Ex. 84] | 
2 |  |  |  |  |  |  |  |  |  |  |  |  |  |  |  | 6.25 (≈ 12.7 µM) | 3.13 (≈ 6.34 µM) | 1.56 (≈ 3.16 µM) | 50.0 (≈ 101 µM) | 1.56 (≈ 3.16 µM) | FC(=Cc1ccc2c(c1)OCO2)OCC1COC(Cn2ccnc2)(c2ccc(Cl)cc2Cl)O1 (stereo not drawn) [Ex. 12] | Minimal inhibitory concentration (MIC) [5]: 3.13 µg/mL (≈ 6.34 µM); Minimal inhibitory concentration (MIC) [6]: 0.78 µg/mL (≈ 1.58 µM); Minimal inhibitory concentration (MIC) [7]: 0.39 µg/mL (≈ 0.791 µM); Minimal inhibitory concentration (MIC) (Candida albicans C1-2): 25.0 µg/mL (≈ 50.7 µM); Minimal inhibitory concentration (MIC) [8]: 6.25 µg/mL (≈ 12.7 µM); Minimal inhibitory concentration (MIC) [9]: 6.25 µg/mL (≈ 12.7 µM); Minimal inhibitory concentration (MIC) [10]: 0.78 µg/mL (≈ 1.58 µM); Minimal inhibitory concentration (MIC) [11]: 0.78 µg/mL (≈ 1.58 µM); Minimal inhibitory concentration (MIC) [12]: 1.56 µg/mL (≈ 3.16 µM); Minimal inhibitory concentration (MIC) [13]: 12.5 µg/mL (≈ 25.3 µM)
3 |  |  |  |  |  |  |  |  |  |  |  |  |  |  |  | >100 | >100 | 3.13 | >100 | >100 | Cc1cccc(C=C(F)OCC2COC(Cn3ccnc3)(c3ccc(F)cc3F)O2)c1 (mixture of isomers) [Ex. 37] | Minimal inhibitory concentration (MIC) [5]: >100 µg/mL; Minimal inhibitory concentration (MIC) [6]: 50.0 µg/mL; Minimal inhibitory concentration (MIC) [7]: 0.78 µg/mL; Minimal inhibitory concentration (MIC) (Candida albicans C1-2): 25.0 µg/mL; Minimal inhibitory concentration (MIC) [8]: >100 µg/mL; Minimal inhibitory concentration (MIC) [9]: 6.25 µg/mL; Minimal inhibitory concentration (MIC) [10]: 6.25 µg/mL; Minimal inhibitory concentration (MIC) [11]: 25.0 µg/mL; Minimal inhibitory concentration (MIC) [12]: 3.13 µg/mL; Minimal inhibitory concentration (MIC) [13]: 25.0 µg/mL
4 | >100 | >100 | 1.56 | >100 | >100 | >100 | 6.25 | 0.39 | 25.0 | >100 | 50.0 | 1.56 | 3.13 | 1.56 | 50.0 |  |  |  |  |  | FC(=C(c1ccccc1)C(F)(F)F)N1CCN(c2ccc(OCC3COC(Cn4ccnc4)(c4ccc(Cl)cc4Cl)O3)cc2)CC1 (mixture of isomers) [Ex. 124] | 

— patent publication US6376497B1, “Antifungal azole derivatives having a fluorinated vinyl group and process for preparing same” (Korea Research Institute of Chemical Technology, priority 1999, dated 2002)
